Assay [1] relates to human monocyte stimulated cytokine production (TNF-α). Nature of the assay: Monocyte assay (LPS-stimulated TNF-α production). The class given is cell-based. The settings on record: for IC50: 24 h, 200 ng/mL LPS, TNF-α by ELISA. In short, it runs like this:
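TNF-α release was measured by ELISA after 24 hrs at 37 C. Cells were stimulated with 200 ng/mL E. coli LPS, with compound added 30 minutes beforehand (0.1% DMSO vehicle). Cells were Ficoll/MACS-isolated CD14+ human monocytes adhered at 1×10^6 cells/mL, and viability was checked by trypan blue.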
Background: An ELISA detects its analyte on a solid surface through an enzyme-linked reagent.

Assay [2] concerns the target T1, Recombinant human IKKβ (residues 1-737) (Homo sapiens, UniProt O14920).
T1 construct: Recombinant human IKKβ (residues 1-737); GST (C); made in house
T1 sequence (O14920 1-737): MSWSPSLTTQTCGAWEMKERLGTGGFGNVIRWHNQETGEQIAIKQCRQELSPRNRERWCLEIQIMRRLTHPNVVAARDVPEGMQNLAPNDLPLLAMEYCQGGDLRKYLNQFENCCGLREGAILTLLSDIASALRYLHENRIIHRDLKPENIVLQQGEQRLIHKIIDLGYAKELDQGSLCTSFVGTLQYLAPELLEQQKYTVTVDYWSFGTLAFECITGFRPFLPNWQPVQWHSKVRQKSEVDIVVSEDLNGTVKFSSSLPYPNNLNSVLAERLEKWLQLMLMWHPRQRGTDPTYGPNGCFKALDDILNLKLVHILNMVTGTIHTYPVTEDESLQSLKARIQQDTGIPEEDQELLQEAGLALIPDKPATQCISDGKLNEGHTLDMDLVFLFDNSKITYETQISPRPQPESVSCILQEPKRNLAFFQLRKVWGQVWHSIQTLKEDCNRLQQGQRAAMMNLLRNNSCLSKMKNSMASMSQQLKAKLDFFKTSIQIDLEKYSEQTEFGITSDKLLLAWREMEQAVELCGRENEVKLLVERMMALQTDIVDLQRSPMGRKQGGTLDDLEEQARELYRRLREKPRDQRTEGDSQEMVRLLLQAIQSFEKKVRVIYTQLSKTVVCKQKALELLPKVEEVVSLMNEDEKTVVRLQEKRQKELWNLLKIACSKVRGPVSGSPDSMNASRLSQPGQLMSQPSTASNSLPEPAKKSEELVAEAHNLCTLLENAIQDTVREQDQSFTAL
Description: IKK2 assay (TR-FRET). The settings on record: ATP 1 μM final, read-out: pIC50 against IKK2 (converted). The class given is biochemical. The gist of the method:
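TR-FRET readout (665 nm over 620 nm Eu reference) of GST-IB Ser32/36 phosphorylation after 60 min detection. Reaction: 1 μM ATP, 25 nM substrate, 0.5-5 nM GST-fused IKKβ 1-737 from baculovirus, pH 7.4 HEPES buffer, 1.7% DMSO, 15 min room temperature, EDTA-terminated.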
On the technique in general: In TR-FRET formats the signal depends on donor and acceptor labels being close together.

By inhibition is commonly meant the drop in the measured response relative to a control, in per cent.

Counter-ions that a name gives are not always drawn.

As for `CCS(=O)(=O)N1CCC(c2c[nH]c3c(C(N)=O)cc(-c4csc(CN(C)C)n4)cc23)CC1` [Example 355, 5-{2-[(dimethylamino)methyl]-1,3-thiazol-4-yl}-3-[1-(ethylsulfonyl)-4-piperidinyl]-1H-indole-7-carboxamide trifluoroacetate], the inhibition at 0.3 µM in assay [1] (read-out: inhibition at 300 nM in the monocyte assay) was 0 to 60%. Besides, in assay [2], the IC50 was ≤ 10 µM.
With `CCN(C)Cc1nc(-c2cc(C(N)=O)c3[nH]cc(C4CCN(S(=O)(=O)CC)CC4)c3c2)cs1` [Example 356, 5-(2-{[ethyl(methyl)amino]methyl}-1,3-thiazol-4-yl)-3-[1-(ethylsulfonyl)-4-piperidinyl]-1H-indole-7-carboxamide trifluoroacetate], the figures for the IC50 in assay [1] and in assay [2] were ≤ 1.5 µM and ≤ 10 µM, respectively.
With `CCS(=O)(=O)N1CCC(c2c[nH]c3c(C(N)=O)cc(-c4cc(C#N)cc(CNCC(C)C)c4)cc23)CC1` [Example 357, 5-(3-cyano-5-{[(2-methylpropyl)amino]methyl}phenyl)-3-[1-(ethylsulfonyl)-4-piperidinyl]-1H-indole-7-carboxamide trifluoroacetate], the IC50 in assay [1] is ≤ 1.5 µM; in assay [2] it was ≤ 10 µM.
Consider `CCS(=O)(=O)N1CCC(c2c[nH]c3c(C(N)=O)cc(-c4cc(C#N)cc(CN(C)C)c4)cc23)CC1` [Example 358, 5-{3-cyano-5-[(dimethylamino)methyl]phenyl}-3-[1-(ethylsulfonyl)-4-piperidinyl]-1H-indole-7-carboxamide trifluoroacetate], for which the IC50 is ≤ 1.5 µM in assay [1] and ≤ 10 µM in assay [2].
For `CCS(=O)(=O)N1CCC(c2c[nH]c3c(C(N)=O)cc(-c4cccc(CNC(=O)c5ccc(F)cc5)c4)cc23)CC1` [Example 360, 3-[1-(ethylsulfonyl)-4-piperidinyl]-5-[3-({[(4-fluorophenyl)carbonyl]amino}methyl)phenyl]-1H-indole-7-carboxamide trifluoroacetate] the same measures were > 1 µM and ≤ 10 µM.
In the same order, the values of `CCS(=O)(=O)N1CCC(c2c[nH]c3c(C(N)=O)cc(-c4cccc(CNC(=O)c5ccco5)c4)cc23)CC1` [Example 361, 3-[1-(ethylsulfonyl)-4-piperidinyl]-5-(3-{[(2-furanylcarbonyl)amino]methyl}phenyl)-1H-indole-7-carboxamide trifluoroacetate] are ≤ 1.5 µM and ≤ 10 µM.
With `CCS(=O)(=O)N1CCC(c2c[nH]c3c(C(N)=O)cc(-c4cccc(CNC(=O)C5CCCC5)c4)cc23)CC1` [Example 362, 5-(3-{[(cyclopentylcarbonyl)amino]methyl}phenyl)-3-[1-(ethylsulfonyl)-4-piperidinyl]-1H-indole-7-carboxamide trifluoroacetate], the IC50 in assay [1] was > 1 µM; in assay [2], ≤ 10 µM.
Consider `CCS(=O)(=O)N1CCC(c2c[nH]c3c(C(N)=O)cc(-c4cccc(CNC(=O)c5cc6ccccc6s5)c4)cc23)CC1` [Example 363, 5-(3-{[(1-benzothien-2-ylcarbonyl)amino]methyl}phenyl)-3-[1-(ethylsulfonyl)-4-piperidinyl]-1H-indole-7-carboxamide], for which the IC50 was > 1 µM in assay [1] and ≤ 10 µM in assay [2].
In the same order, the values of `CCS(=O)(=O)N1CCC(c2c[nH]c3c(C(N)=O)cc(-c4cccc(CNC(=O)C5CCN(C(C)=O)CC5)c4)cc23)CC1` [Example 364, 5-[3-({[(1-acetyl-4-piperidinyl)carbonyl]amino}methyl)phenyl]-3-[1-(ethylsulfonyl)-4-piperidinyl]-1H-indole-7-carboxamide] are ≤ 1.5 µM and ≤ 10 µM.
As to `CCS(=O)(=O)N1CCC(c2c[nH]c3c(C(N)=O)cc(-c4cccc(CNC(=O)c5cccn5C)c4)cc23)CC1` [Example 365, 3-[1-(ethylsulfonyl)-4-piperidinyl]-5-[3-({[(1-methyl-1H-pyrrol-2-yl)carbonyl]amino}methyl)phenyl]-1H-indole-7-carboxamide], the IC50 in assay [1] is > 1 µM; in assay [2], ≤ 10 µM.
Regarding `CCS(=O)(=O)N1CCC(c2c[nH]c3c(C(N)=O)cc(-c4cccc(CNC(=O)Cc5cccs5)c4)cc23)CC1` [Example 366, 3-[1-(ethylsulfonyl)-4-piperidinyl]-5-(3-{[(2-thienylacetyl)amino]methyl}phenyl)-1H-indole-7-carboxamide], the IC50 was ≤ 1.5 µM in assay [1] and ≤ 10 µM in assay [2].
In the same order, the values of `CCS(=O)(=O)N1CCC(c2c[nH]c3c(C(N)=O)cc(-c4cccc(CNC(=O)C5CCC5)c4)cc23)CC1` [Example 367, 5-(3-{[(cyclobutylcarbonyl)amino]methyl}phenyl)-3-[1-(ethylsulfonyl)-4-piperidinyl]-1H-indole-7-carboxamide] are ≤ 1.5 µM and ≤ 10 µM.
Regarding `CCS(=O)(=O)N1CCC(c2c[nH]c3c(C(N)=O)cc(-c4cccc(CNC(=O)C5CC5)c4)cc23)CC1` [Example 368, 5-(3-{[(cyclopropylcarbonyl)amino]methyl}phenyl)-3-[1-(ethylsulfonyl)-4-piperidinyl]-1H-indole-7-carboxamide], the IC50 was ≤ 1.5 µM in assay [1] and ≤ 10 µM in assay [2].
For the molecule `CCS(=O)(=O)N1CCC(c2c[nH]c3c(C(N)=O)cc(-c4cccc(CNS(=O)(=O)C5CC5)c4)cc23)CC1` [Example 369, 5-(3-{[(cyclopropylsulfonyl)amino]methyl}phenyl)-3-[1-(ethylsulfonyl)-4-piperidinyl]-1H-indole-7-carboxamide], the IC50 in assay [1] is ≤ 1.5 µM; in assay [2] it was ≤ 10 µM.
For `CCS(=O)(=O)N1CCC(c2c[nH]c3c(C(N)=O)cc(-c4cccc(CNS(=O)(=O)c5cc(Cl)ccc5Cl)c4)cc23)CC1` [Example 370, 5-[3-({[(2,5-dichlorophenyl)sulfonyl]amino}methyl)phenyl]-3-[1-(ethylsulfonyl)-4-piperidinyl]-1H-indole-7-carboxamide] the same measures were ≤ 1.5 µM and ≤ 10 µM.
For `CCS(=O)(=O)N1CCC(c2c[nH]c3c(C(N)=O)cc(-c4cccc(CNS(=O)(=O)c5ccc(Br)cc5)c4)cc23)CC1` [Example 371, 5-[3-({[(4-bromophenyl)sulfonyl]amino}methyl)phenyl]-3-[1-(ethylsulfonyl)-4-piperidinyl]-1H-indole-7-carboxamide], the IC50 in assay [1] was ≤ 1.5 µM; in assay [2], ≤ 10 µM.
As for `CCS(=O)(=O)N1CCC(c2c[nH]c3c(C(N)=O)cc(-c4cccc(CNS(=O)(=O)c5ccc(Cl)cc5)c4)cc23)CC1` [Example 372, 5-[3-({[(4-chlorophenyl)sulfonyl]amino}methyl)phenyl]-3-[1-(ethylsulfonyl)-4-piperidinyl]-1H-indole-7-carboxamide], the IC50 is ≤ 1.5 µM in assay [1] and ≤ 10 µM in assay [2].
For `CCS(=O)(=O)N1CCC(c2c[nH]c3c(C(N)=O)cc(-c4cccc(CNS(=O)(=O)c5cccc(F)c5)c4)cc23)CC1` [Example 373, 3-[1-(ethylsulfonyl)-4-piperidinyl]-5-[3-({[(3-fluorophenyl)sulfonyl]amino}methyl)phenyl]-1H-indole-7-carboxamide] the same measures were ≤ 1.5 µM and ≤ 10 µM.
For the molecule `CCS(=O)(=O)N1CCC(c2c[nH]c3c(C(N)=O)cc(-c4cccc(CNS(=O)(=O)c5ccccc5Cl)c4)cc23)CC1` [Example 374, 5-[3-({[(2-chlorophenyl)sulfonyl]amino}methyl)phenyl]-3-[1-(ethylsulfonyl)-4-piperidinyl]-1H-indole-7-carboxamide], the IC50 is > 1 µM in assay [1] and ≤ 10 µM in assay [2].
In the same order, the values of `CCS(=O)(=O)N1CCC(c2c[nH]c3c(C(N)=O)cc(-c4cccc(CNS(=O)(=O)c5cc(Cl)sc5Cl)c4)cc23)CC1` [Example 375, 5-[3-({[(2,5-dichloro-3-thienyl)sulfonyl]amino}methyl)phenyl]-3-[1-(ethylsulfonyl)-4-piperidinyl]-1H-indole-7-carboxamide] are > 1 µM and ≤ 10 µM.
As for `CCS(=O)(=O)N1CCC(c2c[nH]c3c(C(N)=O)cc(-c4cccc(CNS(=O)(=O)c5c(C)cccc5Cl)c4)cc23)CC1` [Example 376, 5-[3-({[(2-chloro-6-methylphenyl)sulfonyl]amino}methyl)phenyl]-3-[1-(ethylsulfonyl)-4-piperidinyl]-1H-indole-7-carboxamide], the IC50 in assay [1] was ≤ 1.5 µM; in assay [2], ≤ 10 µM.

(Values after patent US8063071B2 (GlaxoSmithKline, LLC, priority 2007, dated 2011).)
